Data published in ChEMBL document CHEMBL1146423, “Adenosine-1 active ligands: cirsimarin, a flavone glycoside from Microtea debilis” (J Nat Prod, 1997).
The source made the active and inactive calls. The rule behind the calls is not given here.

biological target: T1, Adenosine receptor A1 (Rattus norvegicus) (UniProt P25099); assay: Displacement of [3H]DPCPX from adenosine A1 receptor in rat forebrain membrane in presence of GTP; format: cell membranes
T1 sequence (whole entry): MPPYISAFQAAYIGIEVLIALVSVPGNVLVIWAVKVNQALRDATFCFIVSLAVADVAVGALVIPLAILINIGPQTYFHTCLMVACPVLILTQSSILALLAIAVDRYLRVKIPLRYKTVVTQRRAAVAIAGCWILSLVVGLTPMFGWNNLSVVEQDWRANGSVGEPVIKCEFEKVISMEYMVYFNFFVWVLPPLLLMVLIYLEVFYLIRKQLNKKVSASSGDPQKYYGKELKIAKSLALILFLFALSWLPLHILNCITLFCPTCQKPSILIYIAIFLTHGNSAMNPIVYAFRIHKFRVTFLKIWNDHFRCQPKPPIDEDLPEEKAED

For COc1cc2oc(-c3ccc(O[C@@H]4O[C@H](CO)[C@@H](O)[C@H](O)[C@H]4O)cc3)cc(=O)c2c(O)c1OC [CIRSIMARIN], which Activity is on record?
The Activity was “Active”.

biological target: T1, Adenosine receptor A1 (Rattus norvegicus); assay: Displacement of [3H]DPCPX from adenosine A1 receptor in rat forebrain membrane assessed as fraction of receptor bound radioligand at 100 ug/mL; format: cell membranes

Which Activity does the source give for O=c1cc(-c2ccc(O)cc2)oc2c([C@@H]3O[C@H](CO)[C@@H](O)[C@H](O)[C@H]3O)c(O)cc(O)c12 here?
The Activity was 103%.

How did the Activity turn out when C[C@@H]1O[C@@H](Oc2c(-c3ccc(O)c(O)c3)oc3cc(O)cc(O)c3c2=O)[C@H](O)[C@H](O)[C@H]1O (stereo in doubt; 6) was run?
Its Activity is 50%.

With C[C@@H]1O[C@@H](OC[C@H]2O[C@@H](Oc3c(-c4ccc(O)cc4)oc4cc(O)cc(O)c4c3=O)[C@H](O)[C@@H](O)[C@@H]2O)[C@H](O)[C@H](O)[C@H]1O as the compound, how does the Activity read?
Its Activity is 37%.

O=c1c(O)c(-c2cc(O)c(O)c(O)c2)oc2cc(O)cc(O)c12 was tested. Which Activity did it give?
The Activity was 24%.

With COc1cc(-c2cc(=O)c3c(O)cc(O[C@@H]4O[C@H](CO)[C@@H](O)[C@H](O)[C@H]4O[C@@H]4O[C@@H](C)[C@H](O)[C@@H](O)[C@H]4O)cc3o2)ccc1O as the compound, how does the Activity read?
Its Activity is 94%.

For COc1cc2oc(-c3ccc(O[C@@H]4O[C@H](CO)[C@@H](O)[C@H](O)[C@H]4O)cc3)cc(=O)c2c(O)c1OC [CIRSIMARIN], which Activity is on record?
The Activity was 2%.

For C[C@@H]1O[C@@H](Oc2c(-c3ccc(O)c(O)c3)oc3cc(O)cc(O)c3c2=O)[C@H](O)[C@H](O)[C@H]1O (stereo in doubt; 8), which Activity is on record?
Its Activity is 58%.

Which Activity does the source give for O=c1c(O)c(-c2ccc(O)cc2)oc2cc(O)cc(O)c12 here?
The Activity was 18%.

Which Activity does the source give for O=c1c(O[C@@H]2O[C@H](CO)[C@H](O)[C@H](O)[C@H]2O)c(-c2ccc(O)c(O)c2)oc2cc(O)cc(O)c12 here?
Its Activity is 86%.

Which Activity does the source give for C[C@@H]1O[C@@H](OC[C@H]2O[C@@H](Oc3c(-c4ccc(O)c(O)c4)oc4cc(O)cc(O)c4c3=O)[C@H](O)[C@@H](O)[C@@H]2O)[C@H](O)[C@H](O)[C@H]1O here?
Its Activity is 103%.

How did the Activity turn out when COc1cc2oc(-c3ccc(O)cc3)cc(=O)c2c(O)c1OC was run?
Its Activity is 48%.

Which Activity does the source give for O=c1cc(-c2ccc(O)cc2)oc2cc(O)cc(O)c12 here?
The Activity was 50%.

biological target: T2, Adenosine receptor A1 (Rattus norvegicus, UniProt P25099); assay: Displacement of [3H]DPCPX from adenosine A1 receptor in rat forebrain membrane; format: cell membranes
T2 sequence (P25099 whole entry): T1 sequence (whole entry)

With COc1cc2oc(-c3ccc(O[C@@H]4O[C@H](CO)[C@@H](O)[C@H](O)[C@H]4O)cc3)cc(=O)c2c(O)c1OC [CIRSIMARIN] as the compound, how does the Ki read?
The Ki was 3.2 µM.
